This note sets out measurements from patent US10005767B2, “Compositions and methods for inhibition of the JAK pathway” (Rigel Pharmaceuticals, Inc., priority 2009, dated 2018).

SMILES strings stand for the structures. Read-outs that look alike come from different tables or passages of the source. A value given as a limit tells only on which side of the number the result lay.

The assay has as its system human primary T-cells, IL-2 stimulated proliferation (JAK-1 and JAK-3 dependent; reported as JAK3 activity). Put plainly: Human primary T-cell proliferation stimulated by IL-2 (Example 3). To be noted: tested under conditions described in Example 3 (IL-2 stimulated human primary T-cell proliferation), read-out: ability to inhibit JAK3 activity, IC50 range (Table V). The format is cell-based. The method, boiled down: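 Peripheral-blood human T-cells pre-activated via TCR/CD28, IL-2-starved overnight, then cultured 72 h at 37 °C with compound in Yssel's medium containing IL-2 (80 U/mL in cell suspension). Proliferation read as viable-cell ATP by CellTiter-Glo luminescence; reduction versus control taken as JAK pathway inhibition.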

The IC50 is the concentration needed to halve the response being measured. `Cc1cnc(Nc2cccc(NS(C)(=O)=O)c2)nc1Nc1ccc2[nH]c(=O)oc2c1` [Compound I-102, N2-((3-methylsulfonylamino)phenyl)-N4-(2-oxo-2,3-dihydrobenzo[d]oxazol-6-yl)-5-methylpyrimidine-2,4-diamine]: the IC50 is below 500 nM.
As to `Cc1ccc(Nc2ncc(C)c(Nc3ccc4oc(=O)[nH]c4c3)n2)cc1C` [Compound I-178, 5-[2-(3,4-Dimethyl-phenylamino)-5-methyl-pyrimidin-4-ylamino]-3H-benzooxazol-2-one], where the note is “Homo sapiens, T-cell”, the IC50 is below 500 nM.
As to `Cc1cnc(Nc2ccc(NCC3CC3)nc2)nc1Nc1ccc2oc(=O)[nH]c2c1` [II-74, 5-(2-(6-(cyclopropylmethylamino)pyridin-3-ylamino)-5-methylpyrimidin-4-ylamino)benzo[d]oxazol-2(3H)-one], the IC50 (Homo sapiens, T-cell) is below 500 nM.
On to `Cc1cnc(Nc2cc(F)cc(OC(C)(C)C#N)c2)nc1Nc1ccc2oc(=O)[nH]c2c1` [Compound I-416, N2-[3-(1-cyano-1-methyl)ethoxy-5-fluoro]phenyl-5-methyl-N4-(2-oxo-2,3-dihydro-1,3-benzoxazol-5-yl)-2,4-pyrimidinediamine], for which the IC50 is below 500 nM.
On to `CS(=O)(=O)Nc1ccc(Nc2ncc(F)c(Nc3ccc4[nH]c(=O)[nH]c4c3)n2)cc1` [Compound I-51, N2-(4-(methylsulfonylamino)phenyl)-N4-(1H-benzo[d]imidazol-2(3H)-on-5-yl)-5-fluoropyrimidine-2,4-diamine], for which the IC50 (Homo sapiens, T-cell) was in the range of 500 to 5000 nM.
Regarding `Cc1cnc(Nc2ccc(F)c(OC(C)(C)C#N)c2)nc1Nc1ccc2oc(=O)[nH]c2c1` [Compound I-417, N2-[3-(1-cyano-1-methyl)ethoxy-4-fluoro]phenyl-5-methyl-N4-(2-oxo-2,3-dihydro-1,3-benzoxazol-5-yl)-2,4-pyrimidinediamine], the IC50 was below 500 nM.
Take `Cc1cnc(Nc2ccc(NS(C)(=O)=O)nc2)nc1Nc1ccc2oc(=O)[nH]c2c1` [II-78, N-(5-(5-methyl-4-(2-oxo-2,3-dihydrobenzo[d]oxazol-5-ylamino)pyrimidin-2-ylamino)pyridin-2-yl)methanesulfonamide]: for the setting “Homo sapiens, T-cell”, the IC50 is below 500 nM.
Turning to `Cc1cnc(Nc2ccc(F)c(OC(F)F)c2)nc1Nc1ccc2oc(=O)[nH]c2c1` [Compound I-435, N2-(3-difluoromethoxy-4-fluoro)phenyl-5-methyl-N4-(2-oxo-2,3-dihydro-1,3-benzoxazol-5-yl)-2,4-pyrimidinediamine], the IC50 was below 500 nM.
Still for that read-out and setting: next, `Cc1cnc(Nc2ccc(S(=O)(=O)NC(C)(C)C)cc2)nc1Nc1ccc2oc(=O)[nH]c2c1` [Compound I-112, N4-(benzoxazolin-2-on-5-yl)-N2-[4-N-(t-butyl)aminosulfonylphenyl]-5-methylpyrimidine-2,4-diamine]: below 500 nM; `Cc1ccc(Nc2ncc(C)c(Nc3ccc4oc(=O)[nH]c4c3)n2)cc1F` [Compound I-363, N2-(3-fluoro-4-methyl)phenyl-5-methyl-N4-(2-oxo-2,3-dihydro-1,3-benzoxazol-5-yl)-2,4-pyrimidinediamine]: below 500 nM.
With `COc1cc(Nc2ncc(C)c(Nc3ccc4oc(=O)[nH]c4c3)n2)cc(C(C)NC(C)C)c1` (centres unmarked) [Compound I-231, 5-(2-(3-(1-(isopropylamino)ethyl)-5-methoxyphenylamino)-5-methylpyrimidin-4-ylamino)benzo[d]oxazol-2(3H)-one], where the note is “Homo sapiens, T-cell”, the IC50 is below 500 nM.
On the same count and under the same terms, next, `CCNC(=O)c1ccc(Nc2ncc(C)c(Nc3ccc4oc(=O)[nH]c4c3)n2)cc1C` [Compound I-171, N-Ethyl-2-methyl-4-[5-methyl-4-(2-oxo-2,3-dihydro-benzooxazol-5-ylamino)-pyrimidin-2-ylamino]-benzamide]: below 500 nM.
Regarding `Cn1c(=O)oc2ccc(Nc3nc(Nc4cccc(NS(C)(=O)=O)c4)ncc3F)cc21` [Compound I-79, N2-((3-methylsulfonylamino)phenyl)-N4-(3-methyl-2-oxo-2,3-dihydrobenzo[d]oxazol-5-yl)-5-fluoropyrimidine-2,4-diamine], the IC50 fell in the range of 500 to 5000 nM.
Still for that read-out and setting: the result for `Cc1cnc(Nc2ccc(C(=O)NC3CCC3)cc2)nc1Nc1ccc2oc(=O)n(COP(=O)(OC(C)(C)C)OC(C)(C)C)c2c1` [Compound I-152, di-tert-butyl(5-(2-(4-(cyclobutylcarbamoyl)phenylamino)-5-methylpyrimidin-4-ylamino)-2-oxobenzo[d]oxazol-3(2H)-yl)methyl phosphate] reads 500 to 5000 nM.
On to `CC(=O)Nc1ccc(Nc2ncc(C)c(Nc3ccc4oc(=O)[nH]c4c3)n2)cc1C(F)(F)F` [Compound I-177, N-{4-[5-Methyl-4-(2-oxo-2,3-dihydro-benzooxazol-5-ylamino)-pyrimidin-2-ylamino]-2-trifluoromethyl-phenyl}-acetamide], for which the IC50 (Homo sapiens, T-cell) was below 500 nM.
On the same count and under the same terms, the result for `COc1ncc(Nc2ncc(C)c(Nc3ccc4oc(=O)[nH]c4c3)n2)cc1C` [II-141, N2-(2-methoxy-3-methylpyridin-5-yl)-5-methyl-N4-(2-oxo-2,3-dihydro-1,3-benzoxazol-5-yl)-2,4-pyrimidinediamine] reads below 500 nM.
On the same count and under the same terms, the result for `Cc1cnc(Nc2cccc(S(N)(=O)=O)c2)nc1Nc1cc(F)c2oc(=O)[nH]c2c1` [Compound I-248, 3-(4-(7-fluoro-2-oxo-2,3-dihydrobenzo[d]oxazol-5-ylamino)-5-methylpyrimidin-2-ylamino)benzenesulfonamide] reads below 500 nM; that for `Cc1cnc(Nc2cccc(S(C)(=O)=O)c2)nc1Nc1cc(C)c2oc(=O)[nH]c2c1` [Compound I-244, 7-methyl-5-(5-methyl-2-(3-(methylsulfonyl)phenylamino)pyrimidin-4-ylamino)benzo[d]oxazol-2(3H)-one], below 500 nM.
Same read-out and setting: the result for `Cc1cnc(Nc2ccc3c(c2)CN(CC(C)C)C3)nc1Nc1ccc2oc(=O)[nH]c2c1` [III-8, N4-(benzo[d]oxazol-2(3H)-on-5-yl)-N2-(2-isobutylisoindolin-5-yl)-5-methylpyrimidine-2,4-diamine] reads below 500 nM.
As for `Cc1cnc(Nc2cc(C)c(F)c(C)c2)nc1Nc1ccc2oc(=O)n(COP(=O)(OC(C)(C)C)OC(C)(C)C)c2c1` [Compound I-450, N4-{3-[bis(1,1-dimethylethoxy)]phosphinyloxymethyl-2-oxo-2,3-dihydro-1,3-benzoxazol-5-yl}-N2-(3,5-dimethyl-4-fluoro)phenyl-5-methyl-2,4-pyrimidinediamine], the IC50 is above 10000 nM.
For `COc1c(F)ccc(Nc2ncc(C)c(Nc3ccc4oc(=O)[nH]c4c3)n2)c1F` [Compound I-200, 5-[2-(2,4-Difluoro-3-methoxy-phenylamino)-5-methyl-pyrimidin-4-ylamino]-3H-benzooxazol-2-one], the IC50 (Homo sapiens, T-cell) is below 500 nM.
Still for that read-out and setting: next, `Cc1cnc(Nc2ccc(N3CCC(NC(=O)NCc4ccccc4)C3)nc2)nc1Nc1ccc2oc(=O)[nH]c2c1` (centres unmarked) [II-98, 1-benzyl-3-(1-(5-(5-methyl-4-(2-oxo-2,3-dihydrobenzo[d]oxazol-5-ylamino)pyrimidin-2-ylamino)pyridin-2-yl)pyrrolidin-3-yl)urea]: below 500 nM.
On to `Cn1c(=O)n(C)c2cc(Nc3nc(Nc4ccc(S(N)(=O)=O)cc4)ncc3F)ccc21` [Compound I-40, N4-(1,3-dimethylbenzimidazolin-2-on-5-yl)-N2-((4-aminosulfonyl)phenyl)-5-fluoropyrimidine-2,4-diamine], for which the IC50 was above 10000 nM.
